From patent publication US20040038861A1, “Methods and compositions for normalizing lipid levels in mammalian tissues” (priority 2001, published 2004)
Like-named read-outs stand apart in the source and are kept apart here.

How the values were obtained:
[1] = biological target: T1, murine ramp 1/C1ins− receptor (Mus musculus, UniProt Q60755+Q9WTJ5); assay: Radioligand binding and displacement of [3H]amylin in L6 myoblasts co-transfected with murine ramp 1 and C1ins−; details: 10 nM radioligand, FIG. 8D
T1 construct: expressed in transfected cells; host or cells: L6 myoblasts (ATCC), transient co-transfection of pcDNA3.1 plasmids
T1 sequence (Q60755 42-496 isoform Q60755-2 limits assumed): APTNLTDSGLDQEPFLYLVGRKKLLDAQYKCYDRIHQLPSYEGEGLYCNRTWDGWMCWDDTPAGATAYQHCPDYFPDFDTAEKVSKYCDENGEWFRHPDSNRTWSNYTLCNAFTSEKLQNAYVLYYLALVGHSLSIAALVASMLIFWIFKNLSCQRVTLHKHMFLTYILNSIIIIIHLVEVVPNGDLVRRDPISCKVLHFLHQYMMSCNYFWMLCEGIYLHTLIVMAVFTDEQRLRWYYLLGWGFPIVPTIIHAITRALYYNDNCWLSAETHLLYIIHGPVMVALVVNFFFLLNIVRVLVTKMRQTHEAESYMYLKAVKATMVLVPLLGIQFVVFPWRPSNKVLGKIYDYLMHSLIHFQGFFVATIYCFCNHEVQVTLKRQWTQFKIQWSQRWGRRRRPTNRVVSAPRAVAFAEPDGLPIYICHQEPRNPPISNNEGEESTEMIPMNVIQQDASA
T1 sequence (Q9WTJ5 27-148 partner): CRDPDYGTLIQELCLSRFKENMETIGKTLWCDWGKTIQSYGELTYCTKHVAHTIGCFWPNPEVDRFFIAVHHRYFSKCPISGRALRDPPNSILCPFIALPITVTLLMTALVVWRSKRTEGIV
Experimental: Transfection of L6 myoblasts and cos-7 cells, and analysis of radioligand binding. L6 myoblasts and cos-7 cells were obtained from ATCC. Both cell lines were cultered in Dulbecco's modified Eagle's medium (DMEM; Gibco/BRL, high glucose) supplemented with 10% fetal calf serum (Gibco/BRL, Gaithersburg, Md.), L-glutamine (2 mM), penicillin (100 U/ml; Sigma), streptomycin (100 mg/ml; Sigma), saline (0.85%), under 5% CO2/95% air at 37° C. The day before transfection, cells were trypsinised and seeded into six-well plates at a density of 2.9×10^5 cells/well in the same medium. For transfection, cells were incubated with a mixture comprising 1 μg each of Qiagen-purified (Qiagen, Valencia, Calif.) plasmids containing C1ins− with either ramp 1 or ramp 3, and Fugene reagent (6 μl; Boehringer Mannheim) in Opti-Mem I medium (Gibco/BRL). The complex was added with serum to cells, which were incubated for a further 48 h.
For binding experiments, radioligand (either alone or together with stated final concentrations of non-radiolabeled ligands) was dissolved in DMEM containing 0.1% BSA (binding buffer) for 1 h before binding experiments were performed. […] Cells were washed twice with this buffer, then incubated with 1 ml of the same plus radioligand for 4 h at room temperature (21° C.).

soleus muscle = assay: Glucose transport (2-deoxy-D-glucose uptake) in incubated soleus muscle strips; assay type: cell-based, rat
Experimental: Soleus muscle preparation. All experiments were performed according to protocols approved by the Institutional Animal Ethics Committee. 5-6 week-old male Wistar rats (160 g) were kept on a 12:12-h light/dark cycle, and fed and watered ad libitum. Animals were anaesthetised with 50 mg/kg Nembutal (pentobarbitone sodium), then sacrificed by cervical dislocation. Soleus muscles were dissected under oxygenated KHB (118 mM NaCl, 4.75 mM KCl, 1.2 mM MgSO4, 24.8 mM NaHCO3, 1.2 mM KH2PO4, 2.54 mM CaCl2, 10 mM glucose, pH 7.4) and teased into halves, then incubated as described below.
Determination of rates of glucose transport in incubated soleus muscle strips. 4-5 muscle strips were added to each flask, which contained 10 ml DMEM. They were pre-incubated with hormones as indicated for 30 min at 30° C. in a shaking water bath, after which 5 μl of 2[^3H]DOG (0.5 μCi/ml) and 5 μl D[^14C(U)]sorbitol (0.05 μCi/ml) were added, then incubated for another 30 min; RIA grade BSA was added to 0.9% (w/v) to prevent non-specific binding of insulin to flasks. Following incubation, muscle strips were transferred to ice-cold KHB for 5-10 min to remove excess [^3H]DOG and [^14C]sorbitol. They were then blotted, frozen, tendons excised, then lyophilized for a further 48 h. Muscles were then weighed, transferred to scintillation vials and digested with 0.5 ml 1 M NaOH at 60° C. for 1 h. Scintillation fluid (4 ml) was added to each vial, and samples counted in a Beckman liquid scintillation spectrometer, preset to count ^14C and ^3H channels simultaneously. The amount of each isotope present in the samples was determined and used to calculate the extracellular space and the intracellular concentration of [^3H]DOG. The accumulation of intracellular [^3H]DOG, a measure of muscle glucose uptake, was calculated by subtracting the concentration of [^3H]DOG in the extracellular space from the corresponding total muscle [^3H]DOG]; extracellular [^3H]DOG was quantified by measuring the muscle concentration of [^14C]sorbitol.
Data analysis. One way ANOVA, Dunnett's Multiple Comparisons Test, and unpaired Student's t-tests were used to calculate the statistical significance of differences, as appropriate. Dose-response curves were fitted to a sigmoidal dose-response algorithm, as follows: Y=minimum+(maximum−minimum)/([…] log ^(EC50^−X), for 2-DOG-uptake; and by a four parameter logistic model, Y=minimum+(maximum−minimum)/(1+10 log ^(EC50^−X)Hill-Coefficient) for total glycogen and [^14C]glucose incorporation. Calculations were performed using Prism v2.0 (GraphPad Software, San Diego, Calif.) to derive values for half-maximal effective concentration (EC50). Displacement curves derived for competition of bound radioligand with cold ligand in transfected cells were calculated according to a one site competition fit using Prism v2.0.

[2] = biological target: binding sites for CGRP in rat liver membranes; details: cited from earlier work
Wistar rats = assay: Serum hormones and blood metabolites following acute CGRP infusion in anaesthetised normal-fed rats; assay type: in vivo, rat; details: end vs commencement of infusion
Experimental: Surgery. Experiments were performed on male Wistar rats. Animals were randomly assigned to experimental groups as outlined below. Induction and maintenance of surgical anesthesia was by 3-5% halothane and 2L oxygen. An initial blood sample was taken from a tail artery for measurement of baseline levels of blood glucose and lactate, electrolyte, acid base and oxygen status and serum levels of free fatty acids, triglyceride and cholesterol. Immediately following this, the trachea was cannulated and the animal ventilated at 60-70 breaths.min-1 with air supplemented with O2. The respiratory rate and end-tidal pressure (10-15 cmH2O) were adjusted to maintain end-tidal CO2 at 35-40 mmHg. Body temperature was maintained at 37° C. throughout surgery and the experiment by a heating pad. The carotid artery and jugular vein were cannulated with a solid-state blood pressure transducer and a saline filled PE 50 catheter respectively. For the antagonist infusion studies, surgery was similar to above with the alteration being that both the carotid artery and jugular vein were cannulated with saline filled PE 50 catheters. Fluids (saline or hormone dissolved in saline) were delivered to the jugular vein with a Y-connector to join the two lines. The carotid artery line was connected to a blood pressure transducer. Blood samples were taken from this line at time zero (baseline reading), 30 minutes and every 20 minutes until the end of the experiment at 90 minutes.
Infusion. […] Blood glucose measurements were taken from tail capillaries at 5-minute intervals throughout the duration of the experiment. At the end of the infusion a terminal blood sample was taken by cardiac puncture and analysed as per the basal sample and also for various metabolites and hormones. Serum and plasma samples were stored at −80° C. until future analysis. Animals were killed by cervical dislocation and harvested tissues (brain, liver, kidney, soleus muscle, extensor digitorum longus muscle, left ventricle, retroperitoneal and epididymal fat pads) snap frozen in liquid N2 and stored at −80° C. until future analysis.

[3] = biological target: CGRP-1 binding sites in rat skeletal muscle membrane; details: rat skeletal muscle membrane preparations, cited from earlier work
[4] = read-out: Kd, high affinity binding site
[5] = read-out: Kd, second binding site

Substance	specific binding of [3H]radioligand to L6 myoblasts co-transfected with ramp 1 and C1ins− [1]	decrease of insulin-stimulated glucose uptake (soleus muscle; amylin 10 nM, insulin 23.7 nM)	2-DOG-uptake, insulin-stimulated (soleus muscle; amylin (10 nM) + insulin (23.7 nM))	2-DOG-uptake (soleus muscle; hormone alone (amylin 10 nM; insulin 23.7 nM), basal 8.8 ± 0.9)	Kd [2, 4]	Kd [2, 5]	Change in [serum] Triglyceride (Wistar rats; CGRP 60 min, CGRP-(8-37) 90 min, control 0.2)	Change in [serum] FFA (Wistar rats; control −0.1)	Change in Lactate (Wistar rats; heparinised whole blood, control 0.3)	Kd [3, 4]	Kd [3, 5]
Rat amylin	significant increases in specific binding	31%	19.5±3.6 nmol/g dry-wt muscle/min	13.4 ± 2.4 nmol/g dry-wt muscle/min							
rat CGRP-1					~0.044 nM	~27 nM	-0.7 mmol/L	0.4 mmol/L	1.7 mmol/L	~0.037 nM	~6 nM
